In patent US11377425B1, “Small molecule modulators of IL-17” (LEO Pharma A/S, priority 2018, dated 2022):

Columns and labels:
human IL-17AA = target: T1, human IL-17AA (Homo sapiens, UniProt Q16552); test: IL-8 release assay in human epithelial keratinocytes adult (HEKa); assay type: cell-based; settings: HEKa cells, 3 ng/mL HEK-human IL-17AA + 10 ng/mL human TNFalpha; read-out: Rel EC50 IL-8 release assay
T1 construct: host or cells: HEK (human embryonic kidney) cells
T1 sequence (Q16552 24-155): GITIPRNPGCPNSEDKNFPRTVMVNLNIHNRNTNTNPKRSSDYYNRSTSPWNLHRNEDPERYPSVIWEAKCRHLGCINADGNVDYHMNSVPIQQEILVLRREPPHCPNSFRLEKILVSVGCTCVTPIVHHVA
Outline: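 IL-8 release, quantified by HTRF and normalized to controls, reports IL-17 signaling in HEKa cells treated with compound plus final 3 ng/mL IL-17AA (HEK-derived) and 10 ng/mL TNF-alpha for 68-72 h; TNF-alpha-only wells set 100% inhibition. Four-parameter logistic fits (r^2>0.9) give relative IC50 and Emax; PrestoBlue flags cytotoxicity.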

[1] = In vivo dosing of compounds in dog (pharmacokinetics, PO and i.v.); set-up: species or system dog (male Beagles); settings: male, Beagle, whole blood, oral dose of Example 32 1 mg/kg
Method: Example 139. In Vivo Dosing of Compounds in Dog
Dog pharmacokinetics (PK) of Examples 32 and 135 were studied in male Beagles. On the day of dosing, the animals were fasted overnight. They had free access to drinking water, except in immediate connection with dosing, and were allowed to eat from 4 hrs after dosing and onwards. The dogs were weighed on the morning prior to dosing and the individual dose volumes were adjusted on a per kg body weight basis.
Oral dosing. The dogs were dosed PO by oral gavage. The test compounds were dosed as suspensions in 1% methyl cellulose solution (2.5 mL/kg). The stomach tube was then flushed with at least 15 mL water post-dose to ensure that all test formulation entered the stomach.
Intravenous dosing. The dogs were dosed i.v. via an in-dwelling catheter in venae cephalica. The dose volume was 1 mL/kg of a solution of Example 32 (0.3 mg/mL) in HPB (hydroxypropyl beta cyclodextrin)/PEG-4 (polyethylene glycol-4)/water (20:20:60). […]
Study samples. […] The compounds were quantified in blood by means of LC-MS/MS.
Standard PK parameters were calculated using non-compartmental analysis and Phoenix WinNonLin 6.4 (Certara, Princeton, N.J.).
(§1) The bioavailabilty (F) was calculated using the equation below, where AUC is the area under the curve for the oral and i.v. dosing routes and D is the dose given i.v. or orally. […]

[2] = In vivo dosing of compounds in mouse (pharmacokinetics, PO and i.v.); settings: female, Balb/C, whole blood, oral dose of Example 32 50 mg/kg
Method: Example 140. In Vivo Dosing of Compounds in Mouse
Mouse pharmacokinetics of Examples 32 and 135 were studied in female Balb/C mice. Animals were not fasted prior to the study and had access to water and certified rodent diet ad libitum during the study. The mice were weighed on the day of the study and the individual dose volumes were adjusted on a per kg body weight basis.
Oral dosing. The mice were dosed by oral gavage. Example 135 was dosed as a suspension in 1% methyl cellulose solution (10 mL/kg). Example 32 was dosed as a suspension in a formulation containing Betadex sulfobutyl ether sodium/PVP (polyvinyl pyrrolidone)/0.1% Citrate buffer pH 3 (20:5:75) (10 mL/kg).
Intravenous dosing. The mice were dosed i.v. via the tail vein. The dose volume was 2 mL/kg of a solution of Example 32 (0.2 mg/mL) in DMSO/ethanol/water/propylene glycol (PG) (2:8:50:40).
Study samples. Blood was collected (exactly 20 μL per time point) from the saphenous vein of each animal into K2EDTA-coated capillaries. […] The compounds were quantified in blood by means of LC-MS/MS.
Standard PK parameters were calculated using non-compartmental analysis in Phoenix WinNonLin 6.4 (Certara, Princeton, N.J.)
as §1

| Compound | EC50 (human IL-17AA) [µM] | bioavailability [1] [%] | bioavailability [2] [%] |
| --- | --- | --- | --- |
| Cc1n[nH]c(C)c1-c1ccc(NC(=O)[C@@H](NC(=O)c2ccnn2C(C)C)C(C2CC2)C2CC2)cc1 (single isomer, unassigned) [Example 32] | < 0.1 | 23 | 26 |
| Cc1n[nH]c(C)c1-c1ccc(NC(=O)[C@@H](NC(=O)N2CCCC2)C2CCCCC2)cc1 [Example 477, N-[(1S)-1-cyclohexyl-2-[4-(3,5-dimethyl-1H-pyrazol-4-yl)anilino]-2-oxo-ethyl]pyrrolidine-1-carboxamide] | > 1 | – | – |
| Cc1n[nH]c(C)c1-c1ccc(NC(=O)[C@@H](NC(=O)N2CCOCC2)C2CCCCC2)cc1 [Example 478, N-[(1S)-1-cyclohexyl-2-[4-(3,5-dimethyl-1H-pyrazol-4-yl)anilino]-2-oxo-ethyl]morpholine-4-carboxamide] | > 1 | – | – |
| Cc1n[nH]c(C)c1-c1ccc(NC(=O)[C@@H](NC(=O)OCCCCO)C(C2CC2)C2CC2)cc1 [Example 479, 4-hydroxy butyl N-[(1S)-1-(dicyclopropylmethyl)-2-[4-(3,5-dimethyl-1H-pyrazol-4-yl)anilino]-2-oxo-ethyl]carbamate] | 0.1 to 1 | – | – |
| Cc1n[nH]c(C)c1-c1ccc(NC(=O)[C@@H](NC(=O)O[C@H](C)CC[C@@H](C)O)C(C2CC2)C2CC2)cc1 [Example 480, [(1R,4R)-4-hydroxy-1-methyl-pentyl] N-[(1S)-1-(dicyclopropylmethyl)-2-[4-(3,5-dimethyl-1H-pyrazol-4-yl)anilino]-2-oxo-ethyl]carbamate] | 0.1 to 1 | – | – |
| Cc1n[nH]c(C)c1-c1ccc(NC(=O)[C@@H](NC(=O)O[C@@H](C)CC[C@H](C)O)C(C2CC2)C2CC2)cc1 [Example 481, [(1S,4S)-4-hydroxy-1-methyl-pentyl] N-[(1S)-1-(dicyclopropylmethyl)-2-[4-(3,5-dimethyl-1H-pyrazol-4-yl)anilino]-2-oxo-ethyl]carbamate] | > 1 | – | – |
| Cc1nn(COP(=O)(O)O)c(C)c1-c1ccc(NC(=O)[C@@H](NC(=O)c2ccnn2[C@@H](C)CO)C(C2CC2)C2CC2)cc1 [Example 483, Disodium [4-[4-[[(2S)-3,3-dicyclopropyl-2-[[2-[(1S)-2-hydroxy-1-methyl-ethyl]pyrazole-3-carbonyl]amino]propanoyl]amino]phenyl]-3,5-dimethyl-pyrazol-1-yl]methyl phosphate] | < 0.1 | – | – |
